Molecules are shown by their SMILES.

For this assay, the target named is T1, human GCS (glucosylceramide synthase) (Homo sapiens, UniProt Q16739).
T1 construct: made in house; host or cells: Expi293F cells (transient expression; microsome fraction)
T1 sequence (Q16739 1-394): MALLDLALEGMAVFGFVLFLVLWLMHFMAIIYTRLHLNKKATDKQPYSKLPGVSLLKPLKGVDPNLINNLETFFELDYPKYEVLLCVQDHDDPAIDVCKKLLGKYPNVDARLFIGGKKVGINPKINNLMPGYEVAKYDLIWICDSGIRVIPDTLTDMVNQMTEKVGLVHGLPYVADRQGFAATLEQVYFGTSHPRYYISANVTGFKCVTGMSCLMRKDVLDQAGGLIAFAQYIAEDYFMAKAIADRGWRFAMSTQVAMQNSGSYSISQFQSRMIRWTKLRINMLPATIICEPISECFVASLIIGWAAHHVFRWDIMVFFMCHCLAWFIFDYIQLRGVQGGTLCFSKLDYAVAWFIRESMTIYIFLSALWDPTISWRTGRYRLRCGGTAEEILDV
In words: Glucosylceramide Synthase (GCS) Assay. It is filed as biochemical. The settings on record: test compound 10 μM; microsome fraction of Expi293F cells expressing human GCS; 1.7 μM UDP-glucose, 3 μM C8 ceramide; room temperature 60 min; C8 glucosylceramide by Rapidfire MS/MS; read-out: GCS enzyme inhibitory rate at 10 μM (%). Here is the method: In enzyme assay, a microsome fraction obtained by transient expression by Expi293F™ cells (catalog number: A14527, Thermo Fisher Scientific) was used as a glucosylceramide synthase source. Liposomal C8 ceramide and UDP-glucose were used as substrates. For each substrate concentration, 1.7 μM UDP-glucose, which is equal to the Km value, and 3 μM C8 ceramide were used. After the enzymatic reaction, the analysis was performed with Rapidfire MS/MS (API-4000™, SCIEX), and C8 glucosylceramide was quantified to evaluate the inhibitory activity of the test compound against glucosylceramide synthase activity.
PcDNA3.3TOPO vector (catalog number: K830001, Thermo Fisher Scientific) into which the human GCS gene was inserted was introduced into Expi293F™ Cells (catalog number: A14527, Thermo Fisher Scientific) by using ExpiFectamine™ 293 Transfection Kit (catalog number: A14525, Thermo Fisher Scientific). The cultured cells were dissolved in D-PBS (catalog number: 048-29805, Fuji Film Wako Pure Chemical Industries, Ltd.) containing 1 mM PMSF, and the solution was allowed to stand on ice for 30 minutes, and then subjected to cell disruption (homogenized). The disruption solution was centrifuged at 10,000×g for 20 minutes at 4° C., and the obtained supernatant was centrifuged at 142,400×g for 60 minutes at 4° C. The obtained precipitate was resuspended in a D-PBS solution containing 1 mM PMSF, and homogenized again to prepare as a microsome fraction. Protein quantification was performed by the CBB method.
A 1 mM compound solution prepared by dissolving the test compound in DMSO was added to a 384-well plate by 100 nL so that the final concentration of the test compound was 10 μM. Next, a substrate solution consisting of 3.4 μM UDP-glucose and 6 μM C8 ceramide was added by 5 μL, followed by an enzyme solution consisting of a 25 μg/mL microsome fraction by 5 μL. C8 ceramide was prepared from liposomes composed of 15 mol % C8 ceramide and 85 mol % dioleoyl phosphatidylcholine (1,2-dioleoyl-sn-glycero-3-phosphocholine: DOPC). The enzymatic reaction was carried out in a solution consisting of 20 mM tris-hydrochloric acid buffer (pH 7.5), 0.01% Tween 20, 0.01% bovine serum albumin and 1 mM dithiothreitol at room temperature for 60 min. Then, a solution consisting of 75% isopropanol and 1% formic acid containing 0.25 μM N-Octadecanoyl-D35-psichosine (catalog number: 1914, Matreya) as an internal standard substance was added by 60 μL to stop the enzymatic reaction. 5 μL of the centrifugal supernatant of the obtained reaction product was analyzed by Rapidfire MS/MS (Agilent Technologies) using API-4000™ (SCIEX), and the C8 glucosylceramide was quantified to evaluate the inhibitory activity of the test compound against the glucosylceramide synthase activity. The inhibitory activity of the test compound was evaluated when the C8 glucosylceramide level in the enzyme-free solution was considered as 100% inhibitory and the enzyme activity of the DMSO group in the absence of the compound was considered as 0% inhibitory.
Consider `CC(C)(O)c1ccc(NC(=O)c2cccn(-c3ccc(F)cc3OCC(F)(F)F)c2=O)cc1F` [Example 83, N-[3-fluoro-4-(2-hydroxypropan-2-yl)phenyl]-1-[4-fluoro-2-(2,2,2-trifluoroethoxy)phenyl]-2-oxo-1,2-dihydropyridine-3-carboxamide], for which the inhibition at 10 µM was 98%.

Take `CC(C)(C#N)c1ccc(NC(=O)c2cccn(-c3ccc(F)cc3OCC(F)(F)F)c2=O)cn1` [Example 87, N-[6-(2-cyanopropan-2-yl)pyridin-3-yl]-1-[4-fluoro-2-(2,2,2-trifluoroethoxy)phenyl]-2-oxo-1,2-dihydropyridine-3-carboxamide]: the inhibition at 10 µM stood at 99%.

For the compound `CC(O)c1ccc(NC(=O)c2ccnn(-c3ccccc3OCC(F)(F)F)c2=O)cc1` (racemic) [Example 138, rac-N-[4-(1-hydroxyethyl)phenyl]-3-oxo-2-[2-(2,2,2-trifluoroethoxy)phenyl]-2,3-dihydropyridazine-4-carboxamide], the inhibition at 10 µM came out at 99%.

Regarding `CCOC(=O)c1ccc(NC(=O)c2cc(C)nn(-c3ccccc3OCC(F)F)c2=O)cc1` [Example 194, ethyl 4-({2-[2-(2,2-difluoroethoxy)phenyl]-6-methyl-3-oxo-2,3-dihydropyridazine-4-carbonyl}amino)benzoate], the inhibition at 10 µM came out at 97%.

With `O=C(Nc1ccn(-c2ccc(F)cc2)n1)c1cccn(-c2ccccc2OCC(F)(F)F)c1=O` [Example 12, N-[1-(4-fluorophenyl)-1H-pyrazol-3-yl]-2-oxo-1-[2-(2,2,2-trifluoroethoxy)phenyl]-1,2-dihydropyridine-3-carboxamide], the inhibition at 10 µM was 97%.

Regarding `CC(C)(O)c1ccc(NC(=O)c2cccn(-c3ccc(F)c(F)c3OCC(F)(F)F)c2=O)cc1` [Example 111, 1-[3,4-difluoro-2-(2,2,2-trifluoroethoxy)phenyl]-N-[4-(2-hydroxypropan-2-yl)phenyl]-2-oxo-1,2-dihydropyridine-3-carboxamide], the inhibition at 10 µM amounted to 98%.

Consider `CC(C)(O)c1ccc(NC(=O)c2cn(CC(F)F)nc(-c3ccccc3OCC(F)F)c2=O)cc1` [Example 179, 6-[2-(2,2-difluoroethoxy)phenyl]-2-(2,2-difluoroethyl)-N-[4-(2-hydroxypropan-2-yl)phenyl]-5-oxo-2,5-dihydropyridazine-4-carboxamide], for which the inhibition at 10 µM was determined as 99%.

As to `O=C(Nc1ccc(C(O)C2CC2)nc1)c1cccn(-c2ccc(F)cc2OCC(F)(F)F)c1=O` (single isomer, unassigned) [Example 115, (R or S)-N-{6-[cyclopropyl(hydroxy)methyl]pyridin-3-yl}-1-[4-fluoro-2-(2,2,2-trifluoroethoxy)phenyl]-2-oxo-1,2-dihydropyridine-3-carboxamide], the inhibition at 10 µM worked out at 86%.

In the case of `CC(C)(O)c1ccc(NC(=O)c2cccn(-c3cccnc3OCC(F)(F)F)c2=O)cn1` [Example 120, N-[6-(2-hydroxypropan-2-yl)pyridin-3-yl]-2-oxo-2′-(2,2,2-trifluoroethoxy)-2H-[1,3′-bipyridine]-3-carboxamide], the inhibition at 10 µM stood at 74%.

On to `CC(C)(O)c1ccc(NC(=O)c2cccn(-c3ccccc3OCC(F)(F)F)c2=O)cc1F` [Example 82, N-[3-fluoro-4-(2-hydroxypropan-2-yl)phenyl]-2-oxo-1-[2-(2,2,2-trifluoroethoxy)phenyl]-1,2-dihydropyridine-3-carboxamide], for which the inhibition at 10 µM was 99%.

Take `N#CCc1ccc(NC(=O)c2cccn(-c3ccc(F)cc3OCC(F)(F)F)c2=O)cn1` [Example 80, N-[6-(cyanomethyl)pyridin-3-yl]-1-[4-fluoro-2-(2,2,2-trifluoroethoxy)phenyl]-2-oxo-1,2-dihydropyridine-3-carboxamide]: the inhibition at 10 µM was 71%.

Regarding `O=C(Nc1cnn(CC2(F)CC2)c1)c1cccn(-c2ccc(F)cc2OCC(F)(F)F)c1=O` [Example 66, N-{1-[(1-fluorocyclopropyl)methyl]-1H-pyrazol-4-yl}-1-[4-fluoro-2-(2,2,2-trifluoroethoxy)phenyl]-2-oxo-1,2-dihydropyridine-3-carboxamide], the inhibition at 10 µM is 60%.

For the compound `O=C(Nc1ccc(C(O)(C(F)(F)F)C(F)(F)F)cc1)c1cccn(-c2ccc(F)cc2OCC(F)(F)F)c1=O` [Example 103, 1-[4-fluoro-2-(2,2,2-trifluoroethoxy)phenyl]-N-[4-(1,1,1,3,3,3-hexafluoro-2-hydroxypropan-2-yl)phenyl]-2-oxo-1,2-dihydropyridine-3-carboxamide], the inhibition at 10 µM was 100%.

For `CC(C)Cn1cc(NC(=O)c2cccn(-c3ccc(F)cc3OCC(F)(F)F)c2=O)cn1` [Example 33, 1-[4-fluoro-2-(2,2,2-trifluoroethoxy)phenyl]-N-[1-(2-methylpropyl)-1H-pyrazol-4-yl]-2-oxo-1,2-dihydropyridine-3-carboxamide], the inhibition at 10 µM worked out at 76%.

Take `CC(C)(O)c1ccc(NC(=O)c2cccn(-c3ccc(F)cc3OCC(F)(F)F)c2=O)cn1` [Example 85, 1-[4-fluoro-2-(2,2,2-trifluoroethoxy)phenyl]-N-[6-(2-hydroxypropan-2-yl)pyridin-3-yl]-2-oxo-1,2-dihydropyridine-3-carboxamide]: the inhibition at 10 µM came out at 94%.

`C=C(C)c1ccc(NC(=O)c2cc(C(C)(C)O)nn(-c3ccccc3OCC(F)(F)F)c2=O)cc1` [Example 203, 6-(2-hydroxypropan-2-yl)-3-oxo-N-[4-(prop-1-en-2-yl)phenyl]-2-[2-(2,2,2-trifluoroethoxy)phenyl]-2,3-dihydropyridazine-4-carboxamide]: the inhibition at 10 µM turned out to be 99%.

For the compound `O=C(Nc1ccc(C(O)(C(F)F)C(F)F)cc1F)c1ccnn(-c2ccccc2OCC(F)F)c1=O` [Example 157, 2-[2-(2,2-difluoroethoxy)phenyl]-N-[2-fluoro-4-(1,1,3,3-tetrafluoro-2-hydroxypropan-2-yl)phenyl]-3-oxo-2,3-dihydropyridazine-4-carboxamide], the inhibition at 10 µM is 100%.

With `CC(C)(O)c1ccc(NC(=O)c2cn(C3CCOC3)nc(-c3ccccc3OCC(F)F)c2=O)cc1` (racemic) [Example 193, rac-6-[2-(2,2-difluoroethoxy)phenyl]-N-[4-(2-hydroxypropan-2-yl)phenyl]-5-oxo-2-(oxolan-3-yl)-2,5-dihydropyridazine-4-carboxamide], the inhibition at 10 µM was found to be 99%.

As for `CC(C)(O)c1ccc(NC(=O)c2cncn(-c3ccc(F)cc3OCC(F)(F)F)c2=O)cc1` [Example 98, 1-[4-fluoro-2-(2,2,2-trifluoroethoxy)phenyl]-N-[4-(2-hydroxypropan-2-yl)phenyl]-6-oxo-1,6-dihydropyrimidine-5-carboxamide], the inhibition at 10 µM came out at 98%.

For the compound `Cn1cc(C(=O)Nc2ccc(C(C)(C)C#N)cc2)c(=O)c(-c2ccccc2OCC(F)F)n1` [Example 172, N-[4-(2-cyanopropan-2-yl)phenyl]-6-[2-(2,2-difluoroethoxy)phenyl]-2-methyl-5-oxo-2,5-dihydropyridazine-4-carboxamide], the inhibition at 10 µM is 100%.

On to `Cc1cc(C(=O)Nc2ccc(C3COC3)cc2)c(=O)n(-c2ccccc2OCC(F)F)n1` [Example 141, 2-[2-(2,2-difluoroethoxy)phenyl]-6-methyl-N-[4-(oxetan-3-yl)phenyl]-3-oxo-2,3-dihydropyridazine-4-carboxamide], for which the inhibition at 10 µM came to 99%.

Values taken from patent US20220289679A1, “HETEROCYCLIC COMPOUND” (Takeda Pharmaceutical Company Limited, priority 2019, published 2022).
